Legend:
human fibroblasts = test: Screening assay for cell proliferation (CYQUANT); type: cell-based; conditions: Fibroblast, 72 hours, n=4 replicate experiments, FIG. 6
Method: Fibroblasts at 70-90% confluency are trypsinized, replated at 600 cells/well in media in 96-well plates and allowed to attachment overnight. […] Each drug concentration is tested in triplicate wells.
To terminate the assay, the media is removed by gentle aspiration. […] Plates are incubated at room temperature, protected from light for 3-5 minutes.

THP-1 cells = test: TNF-alpha production by macrophages (ELISA); type: cell-based, human; conditions: 1 mg/mL opsonized zymosan, 24 hours, n=4, FIG. 8, read-out: IC50 TNFα production
Method: The human macrophage cell line, THP-1 is plated in a 12 well plate such that each well contains 1×10^6 cells in 2 mL of media containing 10% FCS. Opsonized zymosan is prepared by resuspending 20 mg of zymosan A in 2 mL of ddH2O and homogenizing until a uniform suspension is obtained. Homogenized zymosan is pelleted at 250 g and resuspended in 4 mL of human serum for a final concentration of 5 mg/mL. and incubated in a 37° C. water bath for 20 minutes to enable opsonization. Bay 11-7082 is prepared in DMSO at a concentration of 10^−2 M and serially diluted 10-fold to give a range of stock concentrations (10^−8 M to 10^−2 M) (J. Immunol. (2000) 165: 411-418; J. Immunol. (2000) 164: 4804-4811; J. Immunol. Meth. (2000) 235 (1-2): 33-40).
THP-1 cells are stimulated to produce TNFα by the addition of 1 mg/mL opsonized zymosan. […]
After a 24 hour stimulation, supernatants are collected to quantify TNFα production. TNFα concentrations in the supernatants are determined by ELISA using recombinant human TNFα to obtain a standard curve. […] The dilution of Capture Antibody used is lot-specific and is determined empirically. […] Stop Solution (2 NH2SO4) is then added to the wells and a yellow colour reaction is read at 450 nm with λ correction at 570 nm. Mean absorbance is determined from triplicate data readings and the mean background is subtracted. […]

Structure (SMILES)	IC50 (human fibroblasts) [nM]	IC50 (THP-1 cells) [nM]
O=C1c2c(O)ccc(O)c2C(=O)c2c(NCCNCCO)ccc(NCCNCCO)c21 [Mitoxantrone, 9,10-Anthracenedione, 1,4-dihydroxy-5,8-bis[[2-[(2-hydroxyethyl)amino]ethyl]amino]-]	20	
Cc1ccc(S(=O)(=O)/C=C/C#N)cc1 [Bay 11-7082]		810
